# Assays:
# [1] = system: LN229 MGMT+/−, MMR+/− cells; test: Micronuclei analysis; format: cell-based, human; conditions: 20 μM, 48 h
# From the text: FIGS. 8A-8K. (FIG. 8A) Change in percent cells with 1 micronuclei from baseline (DMSO control) after treatment as in FIGS. 5A and 5C. Columns, mean; error bars, SD; n>15 technical replicates; **** p<0.0001; ns, not significant. (FIG. 8B) Short-term viability assay curves for KL-50 in PD20 cells, deficient in FANCD2 (FANCD2−/−) or complemented with FANCD2 (+FANCD2). (FIG. 8C) Short-term viability assay curves for KL-50 in PEO4 (BRCA2+) and PEO1 (BRCA2−/−) cells pre-treated with 0.01% DMSO control or 10 μM O^6BG (+O^6BG) for 1 h prior to KL-50 addition. (FIG. 8D) Short-term viability assay curves for KL-50 in DLD1 BRCA2+/− and BRCA2−/−cells pre-treated with 0.01% DMSO control or 10 μM O^6BG (+O^6BG) for 1 h prior to KL-50 addition. For FIGS. 8B-8D, points, mean; error bars, SD; n=3 technical replicates. […] (FIG. 8E) Validation of micronuclei identification using olaparib as positive control. […] The % FANCD2 ubiquitination (% FANCD2 Ub) is quantified as the background-corrected integrated band intensity of the upper band divided by the sum of the background-corrected integrated band intensities of the upper and lower bands. […]
# Micronuclei Analysis. An automated image analysis pipeline was developed by YCMD using InCell Analyzer software to quantify micronuclei formation. […]
# [2] = system: LN229 MGMT−/MMR+ flank tumors; test: Murine flank tumor model, LN229 MGMT-/MMR+; format: in vivo, mouse; conditions: 5 mg/kg MWF x 3 weeks, P.O.
# From the text: FIGS. 9A-91: KL-50 is safe and efficacious on both MGMT−/MMR+ and MGMT−/MMR-flank tumors over a wide range of treatment regimens and conditions. […] (FIG. 9C) Mean body weight of mice during LN229 flank tumor experiments. (FIG. 9D) Kaplan-Meier analysis of LN229 MGMT−/MMR− xenograft flank tumor-bearing mice to determine survival rate based on death, removal from study if mouse body weight loss exceeded 20% of initial body weight, or if tumor volume exceeded 2000 mm^3. […] (FIGS. 9H-91) Xenograft LN229 MGMT−/MMR+ and LN229 MGMT−/MSH6—flank tumors with a larger average starting tumor size of −400 mm^3 and −350 mm^3 respectively, treated with 3 weekly cycles of P.O administration of 10% cyclodextrin (n=4) or KL-50 (n=4, 3 cycles of 25 mg/kg on Monday, Wednesday, and Friday). The study period was limited by control groups which had to be euthanized for exceeding the ethical maximum allowed tumor size, thus ending the study. In all panels, points, mean; error bars, SEM; *, P<0.05; **, P<0.01; ***, P<0.001; ****, P<0.0001; ns, not significant.
# Mouse Protocols for Flank Studies. A mouse tumor model was established by subcutaneously implanting human LN229 (MGMT−/MMR+) or LN229 (MGMT−/MMR−) cells. […] During the final centrifugation, viability was determined using trypan blue exclusion. […]
Compound,foci induction or micronuclei formation in MGMT−/MMR− cells [1],"tumor growth, MGMT−/MMR+ flank tumors [2]",micronuclei formation ([1]; greatest in MGMT−/MMR− cells)
"Cn1nnc2c(C(N)=O)ncn2c1=O [TMZ, 4-methyl-5-oxo-2,3,4,6,8-pentazabicyclo[4.3.0]nona-2,7,9-triene-9-carboxamide, reference compound]",not observed,suppressed tumor growth,
NC(=O)c1ncn2c(=O)n(CCF)nnc12 [KL-50],,statistically non-inferior to TMZ,significant increase in micronuclei
